Measurements: patent US9611262B2, “Substituted 2-azabicycles and their use as orexin receptor modulators” (JANSSEN PHARMACEUTICA NV, priority 2014, dated 2017)

Target: human orexin 2 receptor (Homo sapiens (Human), UniProt O43614)
Assay: Human orexin 2 receptor radioligand binding ([3H]-EMPA competition)
Conditions: HEK293 stably expressing human orexin 2 receptor; 2 nM [3H]-EMPA; averages of 2-20 runs; read-out: hOX2 Ki
Procedure: The in vitro affinity of the compounds of the invention for the rat/human orexin 1 and human orexin 2 receptors was determined by competitive radioligand binding using [^3H](1-(5-(2-fluoro-phenyl)-2-methyl-thiazol-4-yl)-1-((S)-2-(5-phenyl-(1,3,4)oxadiazol-2-ylmethyl)-pyrrolidin-1-yl)-methanone) (Langmead et al., 2004) and [^3H]EMPA (n-ethyl-2[96-methoxy-pyridin-3-yl)-(toluene-2-sulfonyl)-amino]-N-pyridin-3-ylmethyl acetamide), respectively (Langmead et al., 2004, British Journal of Pharmacology 141:340-346; Malherbe et al., 2004, British Journal of Pharmacology 156:1326-41).
Data are analyzed using pc-Sandy macro and graphed on Graphpad Prism 5. For analysis, each concentration point is averaged from triplicate values and the averaged values are plotted on Graphpad Prism. The IC50 was determined by applying the following equation (GraphPad Prism 5.0, San Diego) for one site competition where X=log (concentration) and Y=specific binding. Top denotes the total [^3H]— (1-(5-(2-fluoro-phenyl)-2-methyl-thiazol-4-yl)-1-((S)-2-(5-phenyl-(1,3,4)oxadiazol-2-ylmethyl)-pyrrolidin-1-yl)-methanone) binding, bottom denotes the nonspecific [^3H]— (1-(5-(2-fluoro-phenyl)-2-methyl-thiazol-4-yl)-1-((S)-2-(5-phenyl-(1,3,4)oxadiazol-2-ylmethyl)-pyrrolidin-1-yl)-methanone) binding. Graphpad Prism calculates Ki value from IC50 and the pre-determined Kd values for [^3H]— (1-(5-(2-fluoro-phenyl)-2-methyl-thiazol-4-yl)-1-((S)-2-(5-phenyl-(1,3,4)oxadiazol-2-ylmethyl)-pyrrolidin-1-yl)-methanone) and [^3H]-EMPA. The Ki for each compound is then uploaded into 3DX. Each run comprises individual compounds in triplicate. The data in Table 1 and Table 2 represent averages from between 2-20 runs
Human Orexin 2 Receptor Radioligand Binding Studies
HEK293 stably expressing human orexin 2 receptor (Genebank accession number NM_001526) were grown to confluency in DMEM (Hyclone, cat # SH30022), 10% FBS, 1× Pen/Strep, 1× NaPyruvate, 10 mM HEPES, 600 μg/ml G418 media on 150 cm^2 tissue culture plates, washed with 5 mM EDTA in PBS (HyClone Dulbecco's Phosphate Buffered Saline 1× with Calcium and Magnesium, Cat # SH30264.01, hereafter referred to simply as PBS) and scraped into 50 ml tubes. After centrifugation (2K×G, 5 min at 4° C.), the supernatant was aspirated and the pellets frozen and stored at −80° C. Cells were resuspended in PBS in the presence of 1 tablet of protease inhibitor cocktail (Roche, Cat. #11836145001) per 50 mL. […] Compounds were solubilized in 100% DMSO (Acros Organics, Cat. #61042-1000) and tested over a range of 7 concentration (from 0.1 nM to 10 μM). The final concentration of DMSO in the reactions is equal to or less than 0.1%. Total and nonspecific binding was determined in the absence and presence of 10 μM almorexant. The total volume of each reaction is 200 μL (20 μL of diluted compounds, 80 μL of [^3H]-EMPA diluted in PBS and 100 μL of the cell suspension). Reactions were run for 60 min at room temperature and terminated by filtration through GF/C filter plates (PerkinElmer, Cat. #6005174) presoaked in 0.3% polyethylenimine using the cell harvester (PerkinElmer Filtermate). The plates were washed 3 times by aspirating 30 ml PBS through the plates. Plates were dried in 55° C. oven for 60 min, scintillation fluid was added, and the radioactivity was counted on a Topcount (Packard).

Sequence of human orexin 2 receptor (O43614 whole entry): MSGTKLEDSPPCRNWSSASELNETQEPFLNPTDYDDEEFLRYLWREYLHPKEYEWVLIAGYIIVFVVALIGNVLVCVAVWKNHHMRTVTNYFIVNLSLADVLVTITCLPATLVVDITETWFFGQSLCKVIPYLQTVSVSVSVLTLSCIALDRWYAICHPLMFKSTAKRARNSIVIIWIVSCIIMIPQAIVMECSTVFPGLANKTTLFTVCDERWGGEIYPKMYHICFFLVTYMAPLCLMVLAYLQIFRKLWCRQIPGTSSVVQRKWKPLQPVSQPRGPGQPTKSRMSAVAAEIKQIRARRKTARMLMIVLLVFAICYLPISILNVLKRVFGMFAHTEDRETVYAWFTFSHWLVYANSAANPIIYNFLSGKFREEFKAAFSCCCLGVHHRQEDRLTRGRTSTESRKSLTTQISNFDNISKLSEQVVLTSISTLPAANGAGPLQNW

Structure (SMILES)	Ki
C[C@@H]1[C@H]2C[C@@H](Nc3ccc(C(F)(F)F)cn3)[C@H](C2)N1C(=O)c1ncccc1-n1nccn1 (relative stereo) [Example 64, (3-(2H-1,2,3-triazol-2-yl)pyridin-2-yl)((1S*,3R*,4S*,6R*)-3-methyl-6-((5-(trifluoromethyl)pyridin-2-yl)amino)-2-azabicyclo[2.2.1]heptan-2-yl)methanone]	0.324 µM
C[C@@H]1[C@H]2C[C@@H](Nc3ccc(C(F)(F)F)cn3)[C@H](C2)N1C(=O)c1cccc(F)c1-n1nccn1 (relative stereo) [Example 65, (3-fluoro-2-(2H-1,2,3-triazol-2-yl)phenyl)((1S*,3R*,4S*,6R*)-3-methyl-6-((5-(trifluoromethyl)pyridin-2-yl)amino)-2-azabicyclo[2.2.1]heptan-2-yl)methanone]	0.183 µM
Cc1cnc(C(=O)N2[C@H](C)[C@H]3C[C@@H](Nc4ccc(C(F)(F)F)cn4)[C@@H]2C3)c(-n2nccn2)c1 (relative stereo) [Example 66, (5-methyl-3-(2H-1,2,3-triazol-2-yl)pyridin-2-yl)((1S*,3R*,4S*,6R*)-3-methyl-6-((5-(trifluoromethyl)pyridin-2-yl)amino)-2-azabicyclo[2.2.1]heptan-2-yl)methanone]	0.317 µM
Cc1ccc(-n2nccn2)c(C(=O)N2[C@H](C)[C@H]3C[C@@H](Oc4cnc5ccccc5n4)[C@@H]2C3)n1 (relative stereo) [Example 183, (6-methyl-3-(2H-1,2,3-triazol-2-yl)pyridin-2-yl)((1S*,3R*,4R*,6R*)-3-methyl-6-(quinoxalin-2-yloxy)-2-azabicyclo[2.2.1]heptan-2-yl)methanone]	0.195 µM
Cc1ccc(-n2nccn2)c(C(=O)N2[C@H](C)[C@H]3C[C@@H](Oc4cnc5ccccc5c4)[C@@H]2C3)n1 (relative stereo) [Example 185, (6-methyl-3-(2H-1,2,3-triazol-2-yl)pyridin-2-yl)((1S*,3R*,4R*,6R*)-3-methyl-6-(quinolin-3-yloxy)-2-azabicyclo[2.2.1]heptan-2-yl)methanone]	0.061 µM
C[C@@H]1[C@H]2C[C@@H](Oc3cnc4cc(F)c(F)cc4n3)[C@H](C2)N1C(=O)c1cccc(F)c1-n1nccn1 (relative stereo) [Example 190, ((1S*,3R*,4R*,6R*)-6-((6,7-difluoroquinoxalin-2-yl)oxy)-3-methyl-2-azabicyclo[2.2.1]heptan-2-yl)(3-fluoro-2-(2H-1,2,3-triazol-2-yl)phenyl)methanone]	0.123 µM
C[C@@H]1[C@H]2C[C@@H](Oc3cnc4cc(F)c(F)cc4n3)[C@H](C2)N1C(=O)c1ccccc1-n1nccn1 (relative stereo) [Example 191, (2-(2H-1,2,3-triazol-2-yl)phenyl)((1S*,3R*,4R*,6R*)-6-((6,7-difluoroquinoxalin-2-yl)oxy)-3-methyl-2-azabicyclo[2.2.1]heptan-2-yl)methanone]	0.072 µM
Cc1ccc(-n2nccn2)c(C(=O)N2C(C)C3CC(Nc4cnc(C(F)(F)F)cn4)C2C3)n1 (single isomer, unassigned) [Example 6, (R/S)-(6-methyl-3-(2H-1,2,3-triazol-2-yl)pyridin-2-yl)(3-methyl-6-((5-(trifluoromethyl)pyrazin-2-yl)amino)-2-azabicyclo[2.2.1]heptan-2-yl)methanone]	0.664 µM

Other lines, results leading:

Ki	Structure (SMILES)
> 10 µM	CC1C2CC(Nc3cnc(C(F)(F)F)cn3)C(C2)N1C(=O)c1ccccc1-n1nccn1 (single isomer, unassigned) [Example 5A, (2-(2H-1,2,3-triazol-2-yl)phenyl)((1R*,3R*,4R*,6S*)-3-methyl-6-((5-(trifluoromethyl)pyrazin-2-yl)amino)-2-azabicyclo[2.2.1]heptan-2-yl)methanone]
0.146 µM	CC1C2CC(Nc3cnc(C(F)(F)F)cn3)C(C2)N1C(=O)c1ccccc1-n1nccn1 (single isomer, unassigned) [Example 5B, (2-(2H-1,2,3-triazol-2-yl)phenyl)((1S*,3S*,4S*,6R*)-3-methyl-6-((5-(trifluoromethyl)pyrazin-2-yl)amino)-2-azabicyclo[2.2.1]heptan-2-yl)methanone]
> 10 µM	Cc1ccc(-n2nccn2)c(C(=O)N2C(C)C3CC(Nc4cnc(C(F)(F)F)cn4)C2C3)n1 (single isomer, unassigned) [Example 6A, (6-methyl-3-(2H-1,2,3-triazol-2-yl)pyridin-2-yl)((1R*,3R*,4R*,6S*)-3-methyl-6-((5-(trifluoromethyl)pyrazin-2-yl)amino)-2-azabicyclo[2.2.1]heptan-2-yl)methanone]
0.154 µM	Cc1ccc(-n2nccn2)c(C(=O)N2C(C)C3CC(Nc4cnc(C(F)(F)F)cn4)C2C3)n1 (single isomer, unassigned) [Example 6B, (6-methyl-3-(2H-1,2,3-triazol-2-yl)pyridin-2-yl)((1S*,3S*,4S*,6R*)-3-methyl-6-((5-(trifluoromethyl)pyrazin-2-yl)amino)-2-azabicyclo[2.2.1]heptan-2-yl)methanone]
> 10 µM	CC1C2CC(Oc3ccc(C(F)(F)F)cn3)C(C2)N1C(=O)c1ccc(F)cc1-c1ncccn1 (single isomer, unassigned) [Example 17A, (4-fluoro-2-(pyrimidin-2-yl)phenyl)((1R*,3S*,4S*,6S*)-3-methyl-6-((5-(trifluoromethyl)pyridin-2-yl)oxy)-2-azabicyclo[2.2.1]heptan-2-yl)methanone]
0.947 µM	CC1C2CC(Oc3ccc(C(F)(F)F)cn3)C(C2)N1C(=O)c1ccc(F)cc1-c1ncccn1 (single isomer, unassigned) [Example 17B, (4-fluoro-2-(pyrimidin-2-yl)phenyl)((1S*,3R*,4R*,6R*)-3-methyl-6-((5-(trifluoromethyl)pyridin-2-yl)oxy)-2-azabicyclo[2.2.1]heptan-2-yl)methanone]
> 10 µM	CC1C2CC(Oc3ccc(C(F)(F)F)cn3)C(C2)N1C(=O)c1cc(F)ccc1-c1ncccn1 (single isomer, unassigned) [Example 18A, (5-fluoro-2-(pyrimidin-2-yl)phenyl)((1R*,3S*,4S*,6S*)-3-methyl-6-((5-(trifluoromethyl)pyridin-2-yl)oxy)-2-azabicyclo[2.2.1]heptan-2-yl)methanone]
0.879 µM	CC1C2CC(Oc3ccc(C(F)(F)F)cn3)C(C2)N1C(=O)c1cc(F)ccc1-c1ncccn1 (single isomer, unassigned) [Example 18B, (5-fluoro-2-(pyrimidin-2-yl)phenyl)((1S*,3R*,4R*,6R*)-3-methyl-6-((5-(trifluoromethyl)pyridin-2-yl)oxy)-2-azabicyclo[2.2.1]heptan-2-yl)methanone]
> 10 µM	CC1C2CC(Oc3ccc(C(F)(F)F)cn3)C(C2)N1C(=O)c1cccc(F)c1-c1ncc(F)cn1 (single isomer, unassigned) [Example 20A, (3-fluoro-2-(5-fluoropyrimidin-2-yl)phenyl)((1R*,3S*,4S*,6S*)-3-methyl-6-((5-(trifluoromethyl)pyridin-2-yl)oxy)-2-azabicyclo[2.2.1]heptan-2-yl)methanone]
1.89 µM	CC1C2CC(Oc3ccc(C(F)(F)F)cn3)C(C2)N1C(=O)c1cccc(F)c1-c1ncc(F)cn1 (single isomer, unassigned) [Example 20B, (3-fluoro-2-(5-fluoropyrimidin-2-yl)phenyl)((1S*,3R*,4R*,6R*)-3-methyl-6-((5-(trifluoromethyl)pyridin-2-yl)oxy)-2-azabicyclo[2.2.1]heptan-2-yl)methanone]
> 10 µM	CC1C2CC(Nc3cnc(C(F)(F)F)cn3)C(C2)N1C(=O)c1ccccc1-n1nccn1 (single isomer, unassigned) [Example 68A, (2-(2H-1,2,3-triazol-2-yl)phenyl)((1R*,3S*,4R*,6S*)-3-methyl-6-((5-(trifluoromethyl)pyrazin-2-yl)amino)-2-azabicyclo[2.2.1]heptan-2-yl)methanone]
